Assay type in all cases: cell-based
In one assay the test system is Escherichia coli 1507 E. Description: activity against Escherichia coli 1507 E. The conditions noted are these: in words.
For the next assay, the system named is Escherichia coli TEM. Kind of assay: activity against Escherichia coli TEM. As to conditions: in words.
The subject of assay [1] is Klebsiella pneumoniae ATCC 10031. Kind of assay: activity against Klebsiella pneumoniae ATCC 10031. The conditions noted are these: in words.
Another assay concerns Proteus vulgaris X 20. Description: activity against Proteus vulgaris X 20. The conditions noted are these: in words.
The next assay has as its system Gram-positive bacteria. Description: activity against Gram-positive bacteria. The conditions noted are these: in words.
Another assay concerns Gram-negative bacteria. Description: minimal inhibiting concentrations against Gram-negative bacteria. The conditions noted are these: in words.
The next assay concerns Streptococcus pyogenes. Description: minimal inhibiting concentration against Streptococcus pyogenes. As to conditions: sodium salt.
The next assay has as its system Streptococcus pneumoniae. Kind of assay: minimal inhibiting concentration against Streptococcus pneumoniae. The conditions noted are these: sodium salt.
In assay [2] the test system is penicillinase producer Staphylococcus aureus. Kind of assay: minimal inhibiting concentration against penicillinase producer Staphylococcus aureus. The conditions noted are these: sodium salt.
Assay [3] deals with penicillinase non-producer Staphylococcus aureus. Kind of assay: minimal inhibiting concentration against penicillinase non-producer Staphylococcus aureus. As to conditions: sodium salt.

Counter-ions that a name gives are not always drawn.

Consider `C[C@@H](O)[C@H]1C(=O)N2C(C(=O)O)=C(CSc3nc(=O)c(O)nn3C)S[C@H]12` [(5R,6S)-6-[1(R)-hydroxyethyl]-2-(2-methyl-5-oxo-6-hydroxy-2,5-dihydro-1,2,4-triazin-3-yl)-thiomethyl-penem-3-carboxylic acid, disodium salt], for which the “activity against Gram-negative bacteria” value (in the assay with Escherichia coli 1507 E; in the assay with Escherichia coli TEM; in [1]; in the assay on Proteus vulgaris X 20) was “particularly favourable activity” each time.
For `C[C@@H](O)[C@H]1C(=O)N2C(C(=O)O)=C(CSc3nnc(SCC(=O)O)s3)S[C@H]12` [(5R,6S)-6-[1(R)-hydroxyethyl]-2-(5-carboxymethylthio-1,3,4-thiadiazol-2-yl)-thiomethyl-penem-3-carboxylic acid], in the assay on Gram-positive bacteria, the “minimal inhibiting concentrations against Gram-positive bacteria” value was “particularly favourable values”. For the same molecule, the “minimal inhibiting concentrations against Gram-negative bacteria” value in the assay on Gram-negative bacteria is recorded as “particularly favourable values”.
As for `C[C@@H](O)[C@H]1C(=O)N2C(C(=O)O)=C(CSc3nnnn3CCC(N)=O)S[C@H]12` [(5R,6S)-6-[1(R)-hydroxyethyl]-2-[1-(2-aminocarbonylethyl)-1,2,3,4-tetrazol-5-yl]-thiomethyl-penem-3-carboxylic acid], in the assay on Gram-positive bacteria, the “minimal inhibiting concentrations against Gram-positive bacteria” value is on record as “particularly favourable values”. Besides, the “minimal inhibiting concentrations against Gram-negative bacteria” value in the assay on Gram-negative bacteria is recorded as “particularly favourable values”.
Turning to `C[C@@H](O)[C@H]1C(=O)N2C(C(=O)O)=C(CSc3nnnn3C)S[C@H]12` [(5R,6S)-6-[1(R)-hydroxyethyl]-2-[1-methyl-1,2,3,4-tetrazol-5-yl)-thiomethyl]-penem-3-carboxylic acid], the “minimal inhibiting concentrations against Gram-positive bacteria” value in the assay on Gram-positive bacteria was “particularly favourable values”. The “minimal inhibiting concentrations against Gram-negative bacteria” value with Gram-negative bacteria is listed as “particularly favourable values”.
As to `C[C@@H](O)[C@H]1C(=O)N2C(C(=O)O)=C(CSc3ccc4nnnn4n3)S[C@H]12` [(5R,6S)-6-[1(R)-hydroxyethyl]-2-{tetrazolo[1,5-b]pyridazin-6-yl}-thiomethyl-penem-3-carboxylic acid], the “activity against Gram-positive bacteria” value in the assay on Gram-positive bacteria is reported as “particularly active”.
Regarding `C[C@@H](O)[C@H]1C(=O)N2C(C(=O)O)=C(CSc3ccc4nnnn4n3)S[C@H]12` [Sodium(5R,6S)-6-[1(R)-hydroxyethyl]-2-(tetrazolo[1,5-b]-pyridazin-6-yl)-thiomethyl-penem-3-carboxylate], the MIC (usually the smallest concentration in the dilution series that meets the test's criterion for growth inhibition) came to 2 ng/mL with Streptococcus pyogenes, 2 ng/mL in the assay with Streptococcus pneumoniae, 4 ng/mL in assay [2] and 4 ng/mL in assay [3].
